Reference: patent publication US20190269666A1, “COMBINATION THERAPY WITH MERESTINIB AND ANTI-PD-L1 OR ANTI-PD-1 INHIBITORS FOR USE IN THE TREATMENT OF CANCER” (Eli Lilly and Company, priority 2016, published 2019)

Test system: CT26 colorectal cancer model
Experiment: Study S082015: single agent merestinib in CT26 syngeneic mouse tumor model
Format: in vivo
Settings: for Body weight change from baseline (%) / T/C %: Day 26
Experimental: A syngeneic mouse tumor model is used to evaluate potential combination effect of merestinib and anti-PD-L1 antibody is the CT26 colorectal cancer model using the mouse colorectal cancer line CT26. This experiment is conducted in immune competent mice (Grosso and Jure-Kunkel, Cancer Immunity Vol. 13, p. 5, January 2013; Duraiswamy et al, Cancer Research, Jun. 15, 2013 73; 3591.). Anti-PD-L1 antibody surrogate (178G7, LSN3370181) (Eppihimer et al. Microcirculation 2002:9(2):133) is used in the mouse study.
Female BALB/c mice (18-20 gm) from Envigo (Harlan Laboratories) are used for this study. Food and water are available ad libitum. Animals are acclimated for one week prior to any experimental manipulation. The study is performed in accordance with AALAC accredited institutional guidelines.
Merestinib is formulated as a solution in 10% PEG 400 in 90% (20% Captisol in water) once weekly. Anti-PD-L1 antibody (178G7, LSN3370181) is formulated in PBS (phosphate buffered saline).
CT26 cells (from internal in vivo pharmacology cell culture group lot CT26.WT.3184878) are used for implantation. Approximately 1×10^6 cells in HBSS are implanted subcutaneously into the right hind flank of the animal under anesthesia.
Study S082015 has four groups: 1) vehicle control (10% PEG 400 in 90% [20% Captisol in water]) dosed orally once daily for 21 days; 2) single agent merestinib at 6 mg/kg once daily orally for 21 days; 3) single agent merestinib at 12 mg/kg once daily orally for 21 days; 4) single agent merestinib at 24 mg/kg once daily orally for 21 days. Dosing of merestinib is initiated at Day 6 post-implant of the CT26 cells. There are 15 animals per group. Five animals per group are taken down on Day 13 and on Day 20 post-implant of CT26 cells for the harvesting of spleens and tumors for the interrogation of the effect of merestinib on immune functions. Five animals per group remain to the end of the study (Day 26). Tumor volumes and body weight are measured bi-weekly. Tumor volume is estimated by using the formula: v=l×w2×0.536 where l=larger of measured diameter and w=smaller of perpendicular diameter. At the end of the study, animals are sacrificed using CO2 and cervical dislocation.
Tumor volume is transformed to the log scale to equalize variance across time and treatment groups. The log volume data are analyzed with a two-way repeated measures analysis of variance by time and treatment using the MIXED procedures in SAS software (Version 9.3). The correlation model for the repeated measures is spatial power. Treated groups are compared to the control group at each time point. The MIXED procedure is also used separately for each treatment group to calculate least squares means and standard errors at each time point. Both analyses account for the autocorrelation within each animal and the loss of data that occurs when animals are removed or lost before Day 33.

Structure (SMILES): Cc1ccc(C(=O)Nc2ccc(Oc3cc4cnn(C)c4cc3-c3cn[nH]c3)c(F)c2)c(=O)n1-c1ccc(F)cc1 [merestinib, N-(3-fluoro-4-(1-methyl-6-(1H-pyrazol-4-yl)-1H-indazol-5-yloxy)phenyl)-1-(4-fluorophenyl)-6-methyl-2-oxo-1,2-dihydropyridine-3-carboxamide]
- Body weight change from baseline (%) (6 mg/kg once daily orally): 5.7%
- T/C % (6 mg/kg once daily orally): 52.8%
- Body weight change from baseline (%) (12 mg/kg once daily orally): 3.4%
- T/C % (12 mg/kg once daily orally): 34.8%
- anti-tumor effect (24 mg/kg dose): tumor stasis
- Body weight change from baseline (%) (24 mg/kg once daily orally): 3.0%
- T/C % (24 mg/kg once daily orally): 13.4%
- anti-tumor effect as compared to vehicle control (6, 12, 24 mg/kg once daily orally): significant anti-tumor effect
- tolerability (all three doses (6, 12, 24 mg/kg), no significant loss in body weight): well tolerated
